From patent publication US20250099517A1, “Use of Lactobacillus reuteri Y7 strain for prevention or treatment of ocular diseases” (Taipei Medical University, priority 2023, published 2025) come the findings set out here.

Data set [1] deals with photosensitivity of a retina. As to the kind of experiment: scotopic electroretinography (ERG), blue light-induced macular disease model. The class given is in vivo, C57BL/6 mice. As to the method:
The C57BL/6 mice, which weighed between 23 and 25 g, were divided into seven groups randomly. In each group, the six mice induced by blue light successfully were incorporated in experiments. The samples dissolved in deuterium-depleted water (DDW) were fed to mice through oral tubes once a day. The groups were named and introduced as follows: • (1) Solvent not classified group (NC): The mice were fed with 0.2 ml deuterium-depleted water (DDW) through tubes; • (2) Negative control group (Blue light (BL)): The mice were fed with 0.2 ml deuterium-depleted water (DDW) through tubes and exposed to blue light; • (3) Low-dosage Y7 probiotics group […]): The mice were fed with low-dosage Y7 probiotics (probiotic counts of 1.0×10^8 CFU/ml dissolved in 0.2 ml DDW per day) and exposed to blue light; • (4) High-dosage Y7 probiotics group […]): The mice were fed with high-dosage Y7 probiotics (probiotic counts of 1.0×10^9 CFU/ml dissolved in 0.2 ml DDW per day) and exposed to blue light; • (5) Positive control group (lutein (LU)): The mice were fed with lutein and exposed to blue light. The recommended human dosage of lutein is 30 mg. The mouse cage (48×25×20 cm) placed inside a stainless ventilated box was equipped with blue light boards as blue light sources around and above. In the experiment of animals exposed to blue light, six-week-old mice staying in the mouse cage were fed with drinking water as well as fodders and exposed to 400 Lux blue light illumination under the light-dark cycle of 12-hour light and 12-hour dark. The experiment was aimed at causing mice' late dry macular disease induced by chronic light injuries for simulating a human being's macular disease after long-term exposure to short-wavelength blue light from 3C products in daily life. The mydriatic agent, Atropine (0.125%), was distilled into mice' eyes for mydriasis in advance. Then, mice were anesthetized with Zoletil (40 mg/kg) and Xylazine (10 mg/kg) through intraperitoneal (IP); 2% Methocel gel as a lubricant was distilled into eyes of a deeply anesthetized mouse having placed on a clean bench. The ERG analysis was enabled with the electrodes installed completely. A mouse was stimulated with single excitation light for collection of ERG from which a negative a-wave and a positive b-wave were generated. For the ERG analysis, the excitation time was defined as the period from the initial time of excitation light emitted to the time of the a-wave (b-wave) peak detected; the amplitude of a-wave was defined as the amplitude difference between the background ERG value at the initial time of excitation light emitted and the ERG value of the a-wave peak; the amplitude of b-wave was defined as the amplitude difference between the ERG value of the a-wave peak and the ERG value of the b-wave peak. Any change observed in the excitation time or an amplitude referred to functions of retinal cells normal or abnormal. In electrophysiology, the a-wave denotes the healthy condition of photoreceptors at outside of a retina; the b-wave denotes the healthy condition of medial nerve cells of a retina such as bipolar cells and horizontal cells; the c-wave denotes the healthy condition of retinal pigment epithelium (RPE) on a retina. In the experiment, the scotopic electroretinography (ERG) was used in inspecting influence of exposure to blue light on photosensitivity of a mouse's retina. When light was received by a mouse's eyes, opsins and 11-cis-retinal on photoreceptor cells were combined with each other for a visual cycle such that a membrane potential difference was produced for transmission of ERG by the retinal neuron layer sequentially, that is, the electroretinographic physiological function test was conducted through recording peak potential differences generated by different nerve cells. […]

The nature of data set [2]: food intakes of mice during the experiment. In kind it is in vivo, C57BL/6 mice. To be noted: for food intakes of mice: LU, lutein 6.15 mg/kg bw oral daily, blue light, Mean±S.E.M., n=6. As for the experimental part: In the present invention, six-week-old male C57BL/6 mice were placed in a breeding cage in which the following feeding conditions were kept: temperature, 22±2° C., humidity, 55±5%, and the light-dark cycle of 12-hour light and 12-hour dark. The mice were fed with fodders at the adaptive phase for one week; general solid fodders for test animals were administered to mice of the control group and mice during the adaptive phase. The initial day was defined as Day 0 when the adaptive phase for the mice was over. From the next week, the mice were interfered with samples under test and exposed to blue light. During the experiments, the mice were monitored for weights as well as water intakes and checked for any physiological change. The data for experiments through electroretinography (ERG), fndus photography (FP), fundus fluorescein angiograph (FFA), spectral-domain optical coherence tomography (SD-OCT) and intraocular pressure (IOP) were collected at Day 0, Day 21 and Day 35, as shown in FIG. 1 for the experimental process. The C57BL/6 mice, which weighed between 23 and 25 g, were divided into seven groups randomly. In each group, the six mice induced by blue light successfully were incorporated in experiments. The samples dissolved in deuterium-depleted water (DDW) were fed to mice through oral tubes once a day. The groups were named and introduced as follows: • (1) Solvent not classified group (NC): The mice were fed with 0.2 ml deuterium-depleted water (DDW) through tubes; • (2) Negative control group (Blue light (BL)): The mice were fed with 0.2 ml deuterium-depleted water (DDW) through tubes and exposed to blue light; • (3) Low-dosage Y7 probiotics group […]): The mice were fed with low-dosage Y7 probiotics (probiotic counts of 1.0×10^8 CFU/ml dissolved in 0.2 ml DDW per day) and exposed to blue light; • (4) High-dosage Y7 probiotics group […]): The mice were fed with high-dosage Y7 probiotics (probiotic counts of 1.0×10^9 CFU/ml dissolved in 0.2 ml DDW per day) and exposed to blue light; • (5) Positive control group (lutein (LU)): The mice were fed with lutein and exposed to blue light. The recommended human dosage of lutein is 30 mg. The mouse cage (48×25×20 cm) placed inside a stainless ventilated box was equipped with blue light boards as blue light sources around and above. In the experiment of animals exposed to blue light, six-week-old mice staying in the mouse cage were fed with drinking water as well as fodders and exposed to 400 Lux blue light illumination under the light-dark cycle of 12-hour light and 12-hour dark. The experiment was aimed at causing mice' late dry macular disease induced by chronic light injuries for simulating a human being's macular disease after long-term exposure to short-wavelength blue light from 3C products in daily life. All data written as the form of mean±standard error of the mean (S.E.M.) were used in the statistical analysis through the one-way ANOVA and the Newman-Keuls test; p<0.05 denoted statistical difference. In the experiment, the software for the statistical analysis was Graph pad Prism (v9.2.0). The data such as food intake, water intake, body weight, organ weight and other clinical examination data were analyzed with the one-way ANOVA.

Where [3] appears, read: LU lutein group, ERG Day 35, p<0.05.

Take `CC1=C[C@H](O)CC(C)(C)[C@H]1/C=C/C(C)=C/C=C/C(C)=C/C=C/C=C(C)/C=C/C=C(C)/C=C/C1=C(C)C[C@@H](O)CC1(C)C` [lutein, reference compound]: in data set [1] (setting [3]), the “amplitude of b-waves, BL group versus treated group” value was “BL group decreased significantly compared with the LU or Y7H group”. Also, the “amplitude of c-waves compared with the BL group” value in data set [1] (setting [3]) is reported as “significant difference”. Further, the “food intakes of mice” value in data set [2] (Day7) came to 5.71 ± 1.17; in data set [2] (Day14) it was 4.17 ± 1.15; in data set [2] (Day21) it was 5.04 ± 1.82; in data set [2] (Day28) it was 5.33 ± 2.17; in data set [2] (Day35), 4.43 ± 2.12.
“Lactobacillus reuteri Y7 [Y7 probiotics]”: in data set [1] (mouse, in vivo), the “amplitude of a-waves compared with the BL group” value is given as “increased significantly”; the “amplitude of a-waves compared with the LU group” value is given as “decreased significantly”; the “amplitude of a-waves compared with the NC group” value was “decreased significantly”; the “amplitude of b-waves, BL group versus treated group” value is “BL group decreased significantly compared with the LU or Y7H group”. Also, the “amplitude of c-waves compared with the BL group” value in data set [1] (mouse, in vivo) is recorded as “significant difference”. Further, the “food intakes compared with the BL group” value in data set [2] (mouse, in vivo) is recorded as “significantly higher”.
